# In US20060014644A1, “Phenylsulfonyl ureas, process for their preparation and their use as herbicides and plant growth regulators” (Hoechst Schering AgrEvo GmbH, priority 1999, published 2006):
# Legend:
# [1] = tested on: harmful plants such as Sinapis alba, Chrysanthemum segetum, Avena sativa, Stellaria media, Echinochloa crus-galli, Lolium multiflorum, Setaria spp., Abutilon …; experiment: Pre-emergence effect on weeds (greenhouse pot test, visual scoring); assay type: in vivo, monocotyledonous and dicotyledonous weed plants; conditions: application rate of 0.3 kg and less of active substance per hectar, scored visually after 3 to 4 weeks by comparison with untreated controls
# Description: 1. Pre-Emergence Effect on Weeds
# Seeds or rhizome pieces of monocotyledonous and dicotyledonous weed plants were placed in sandy loam soil in cardboard pots and covered with soil. The compounds according to the invention which were formulated in the form of wettable powders or emulsion concentrates were then applied to the surface of the soil cover in the form of aqueous suspensions or emulsions at an application rate of 600 to 800 l of water/ha (converted), in various dosages.
# After the treatment, the pots were placed in a greenhouse and kept under good growth conditions for the weeds. After the test plants had emerged, the damage to the plants or the negative effect on the emergence was scored visually after a test period of 3 to 4 weeks by comparison with untreated controls. As shown by the test results, compounds according to the invention have good herbicidal pre-emergence activity against a broad spectrum of weed grasses and broad-leafed weeds.
# [2] = tested on: harmful plants such as Sinapis alba, Echinochloa crus-galli, Lolium multiflorum, Chrysanthemum segetum, Setaria spp., Abutilon theophrasti, Amaranthus …; experiment: Post-emergence effect on weeds (greenhouse pot test, visual scoring); assay type: in vivo, monocotyledonous and dicotyledonous weeds; conditions: three-leaf stage, application rate of 0.3 kg and less of active substance per hectare, scored visually after about 3 to 4 weeks by comparison with untreated controls
# Protocol: 2. Post-Emergence Effect on Weeds
# Seeds or rhizome pieces of monocotyledonous and dicotyledonous weeds were placed in sandy loam soil in plastic pots, covered with soil and grown in a greenhouse under good growth conditions. Three weeks after sowing, the test plants were treated at the three-leaf stage. The compounds according to the invention which were formulated as wettable powders or emulsion concentrates were sprayed, at various dosages, onto the green parts of the plants at an application rate of 600 to 800 l of water/ha (converted). After the test plants had remained in the greenhouse for about 3 to 4 weeks under ideal growth conditions, the effect of the preparations was scored visually by comparison with untreated controls. The agents according to the invention also have good herbicidal activity post-emergence against a broad spectrum of economically important Weed grasses and broad-loafed weeds.
SMILES,"herbicidal activity against harmful plants, pre-emergence [1]","herbicidal activity against harmful plants, post-emergence [2]"
COc1nc(NC(=O)NS(=O)(=O)c2cccc(N)c2C(=O)O)nc(OC)n1 [Example 1-9],very good herbicidal activity,very good herbicidal activity
COC(=O)c1c(N)cccc1S(=O)(=O)NC(=O)Nc1nc(OC)cc(OC)n1 [Example 1-11],very good herbicidal activity,very good herbicidal activity
COC(=O)c1c(N)cccc1S(=O)(=O)NC(=O)Nc1nc(C)nc(OC)n1 [Example 1-15],very good herbicidal activity,very good herbicidal activity
COC(=O)c1c(N)cccc1S(=O)(=O)[N-]C(=O)Nc1nc(C)nc(OC)n1.[Na+] [Example 1-16],very good herbicidal activity,very good herbicidal activity
COC(=O)c1c(N)cccc1S(=O)(=O)NC(=O)Nc1nc(C)cc(OC)n1 [Example 1-17],very good herbicidal activity,very good herbicidal activity
COC(=O)c1c(N)cccc1S(=O)(=O)NC(=O)Nc1nc(Cl)cc(OC)n1 [Example 1-23],very good herbicidal activity,very good herbicidal activity
COC(=O)c1c(N)cccc1S(=O)(=O)NC(=O)Nc1nc(OC)nc(OC)n1 [Example 1-25],very good herbicidal activity,very good herbicidal activity
COC(=O)c1c(N)cccc1S(=O)(=O)[N-]C(=O)Nc1nc(OC)nc(OC)n1.[Na+] [Example 1-26],very good herbicidal activity,very good herbicidal activity
COC(=O)c1c(N)cccc1S(=O)(=O)NC(=O)Nc1nc(OC(F)F)cc(OC(F)F)n1 [Example 1-41],very good herbicidal activity,very good herbicidal activity
CCOC(=O)c1c(N)cccc1S(=O)(=O)NC(=O)Nc1nc(OC)cc(OC)n1 [Example 1-45],very good herbicidal activity,very good herbicidal activity
CCOC(=O)c1c(N)cccc1S(=O)(=O)NC(=O)Nc1nc(C)nc(OC)n1 [Example 1-47],very good herbicidal activity,very good herbicidal activity
CCOC(=O)c1c(N)cccc1S(=O)(=O)NC(=O)Nc1nc(Cl)cc(OC)n1 [Example 1-55],very good herbicidal activity,very good herbicidal activity
CCOC(=O)c1c(N)cccc1S(=O)(=O)NC(=O)Nc1nc(OC)nc(OC)n1 [Example 1-57],very good herbicidal activity,very good herbicidal activity
CNc1cccc(S(=O)(=O)NC(=O)Nc2nc(OC)cc(OC)n2)c1C(=O)OC [Example 1-105],very good herbicidal activity,very good herbicidal activity
CCNc1cccc(S(=O)(=O)NC(=O)Nc2nc(OC)cc(OC)n2)c1C(=O)OC [Example 1-129],very good herbicidal activity,very good herbicidal activity
CCNc1cccc(S(=O)(=O)NC(=O)Nc2nc(C)nc(OC)n2)c1C(=O)OC [Example 1-131],very good herbicidal activity,very good herbicidal activity
CCNc1cccc(S(=O)(=O)NC(=O)Nc2nc(OC)nc(OC)n2)c1C(=O)OC [Example 1-135],very good herbicidal activity,very good herbicidal activity
COC(=O)c1c(NC(C)C)cccc1S(=O)(=O)NC(=O)Nc1nc(OC)cc(OC)n1 [Example 1-153],very good herbicidal activity,very good herbicidal activity

SMILES,"herbicidal activity against harmful plants, pre-emergence [1]","herbicidal activity against harmful plants, post-emergence [2]"
COC(=O)c1c(NC(C)C)cccc1S(=O)(=O)[N-]C(=O)Nc1nc(OC)cc(OC)n1.[Na+] [Example 1-154],very good herbicidal activity,very good herbicidal activity
COC(=O)c1c(NC(C)C)cccc1S(=O)(=O)NC(=O)Nc1nc(C)nc(OC)n1 [Example 1-155],very good herbicidal activity,very good herbicidal activity
COC(=O)c1c(NC(C)C)cccc1S(=O)(=O)NC(=O)Nc1nc(OC)nc(OC)n1 [Example 1-159],very good herbicidal activity,very good herbicidal activity
COC(=O)c1c(NCC(C)C)cccc1S(=O)(=O)NC(=O)Nc1nc(OC)cc(OC)n1 [Example 1-177],very good herbicidal activity,very good herbicidal activity
COC(=O)c1c(NCC(C)C)cccc1S(=O)(=O)NC(=O)Nc1nc(C)nc(OC)n1 [Example 1-179],very good herbicidal activity,very good herbicidal activity
CCOC(=O)c1c(NCC(C)C)cccc1S(=O)(=O)NC(=O)Nc1nc(Cl)cc(OC)n1 [Example 1-189],very good herbicidal activity,very good herbicidal activity
COC(=O)c1c(NCCCC(F)(F)F)cccc1S(=O)(=O)NC(=O)Nc1nc(OC)cc(OC)n1 [Example 1-241],very good herbicidal activity,very good herbicidal activity
COC(=O)c1c(NCCCC(F)(F)F)cccc1S(=O)(=O)NC(=O)Nc1nc(C)nc(OC)n1 [Example 1-243],very good herbicidal activity,very good herbicidal activity
COC(=O)c1c(NCCCC(F)(F)F)cccc1S(=O)(=O)NC(=O)Nc1nc(OC)nc(OC)n1 [Example 1-247],very good herbicidal activity,very good herbicidal activity
CCC(C)Nc1cccc(S(=O)(=O)NC(=O)Nc2nc(OC)cc(OC)n2)c1C(=O)OC (stereo not drawn) [Example 1-265],very good herbicidal activity,very good herbicidal activity
CCC(C)Nc1cccc(S(=O)(=O)NC(=O)Nc2nc(C)nc(OC)n2)c1C(=O)OC (stereo not drawn) [Example 1-267],very good herbicidal activity,very good herbicidal activity
CCC(C)Nc1cccc(S(=O)(=O)NC(=O)Nc2nc(OC)nc(OC)n2)c1C(=O)OC (stereo not drawn) [Example 1-271],very good herbicidal activity,very good herbicidal activity
COC(=O)c1c(NC2CC2)cccc1S(=O)(=O)NC(=O)Nc1nc(OC)cc(OC)n1 [Example 1-353],very good herbicidal activity,very good herbicidal activity
COC(=O)c1c(NC2CC2)cccc1S(=O)(=O)NC(=O)Nc1nc(C)nc(OC)n1 [Example 1-355],very good herbicidal activity,very good herbicidal activity
COC(=O)c1c(NC2CC2)cccc1S(=O)(=O)NC(=O)Nc1nc(OC)nc(OC)n1 [Example 1-359],very good herbicidal activity,very good herbicidal activity
COC(=O)c1c(NCc2ccccc2)cccc1S(=O)(=O)NC(=O)Nc1nc(OC)cc(OC)n1 [Example 1-381],very good herbicidal activity,very good herbicidal activity
COC(=O)c1c(NCc2ccccc2)cccc1S(=O)(=O)NC(=O)Nc1nc(C)nc(OC)n1 [Example 1-383],very good herbicidal activity,very good herbicidal activity
COC(=O)c1c(NCc2ccccc2)cccc1S(=O)(=O)NC(=O)Nc1nc(OC)nc(OC)n1 [Example 1-387],very good herbicidal activity,very good herbicidal activity
